In patent US8574563B2 (Bristol-Myers Squibb Company, priority 2006, dated 2013):

Each molecule was assayed on HCV 1b-377-neo replicon cells (assay: HCV replicon assay, HCV 1b-377-neo replicon cells (1b FRET)). Conditions: HCV 1b-377-neo replicon cells; HCV 1b genotype; read-out: EC50 range against HCV 1b (Table 2, Range).
Assay type: cell-based, Hepatitis C virus genotype 1b
Procedure: An HCV Replion assay was utilized in the present disclosure, and was prepared, conducted and validated as described in commonly owned PCT/US2006/022197 and in O'Boyle et. al. Antimicrob Agents Chemother. 2005 April; 49(4):1346-53.
HCV 1b-377-neo replicon cells were used to test the currently described compound series as well as cells resistant to compound A due to a Y2065H mutation in NS5A (described in application PCT/US2006/022197). The compounds tested were determined to have more than 10-fold less inhibitory activity on cells resistant to compound A than wild-type cells indicating a related mechanism of action between the two compound series. Thus, the compounds of the present disclosure can be effective to inhibit the function of the HCV NS5A protein and are understood to be as effective in combinations as previously described in application PCT/US2006/022197 and commonly owned WO/04014852. Further, the compounds of the present disclosure can be effective against the HCV 1b genotype. It should also be understood that the compounds of the present disclosure can inhibit multiple genotypes of HCV. […] In one embodiment compounds of the present disclosure are active against the 1a, 1b, 2a, 2b, 3a, 4a, and 5a genotypes.

SMILES	EC50 [nM]
CCN(CC)[C@@H](C(=O)N1CCC[C@H]1c1ncc(-c2ccc(-c3ccc(-c4cnc([C@@H]5CCCN5C(=O)C5(NC(=O)OC)CCCC5)[nH]4)cc3)cc2)[nH]1)c1ccccc1 [Example M42, methyl (1-(((2S)-2-(5-(4′-(2-((2S)-1-((2R)-2-(diethylamino)-2-phenylacetyl)-2-pyrrolidinyl)-1H-imidazol-5-yl)-4-biphenylyl)-1H-imidazol-2-yl)-1-pyrrolidinyl)carbonyl)cyclopentyl) carbamate]	1 to 99

Same assay, conditions: Hepatitis C virus, HCV 1b-377-neo replicon cells; HCV 1b genotype; read-out: EC50 range against HCV 1b (Table 2, Range)

SMILES	EC50 [nM]
COC(=O)N[C@@H](C(=O)N1CCC[C@H]1c1nc(-c2ccc(-c3ccc(-c4cnc([C@@H]5CCCN5C(=O)C(c5cccnc5)N(C)C)[nH]4)cc3)cc2)c[nH]1)c1ccccc1 (stereo partly drawn) [Example 84-62, methyl ((1R)-2-((2S)-2-(4-(4′-(2-((2S)-1-((dimethylamino)(3-pyridinyl)acetyl)-2-pyrrolidinyl)-1H-imidazol-5-yl)-4-biphenylyl)-1H-imidazol-2-yl)-1-pyrrolidinyl)-2-oxo-1-phenylethyl)carbamate]	0.001 to 0.999
COC(=O)N[C@H](C(=O)N1CCC[C@H]1c1ncc(-c2ccc(-c3ccc(-c4cnc([C@@H]5CCCN5C(=O)c5c[nH]cn5)[nH]4)cc3)cc2)[nH]1)C(C)C [Example M87, methyl ((1S)-1-(((2S)-2-(5-(4′-(2-((2S)-1-(1H-imidazol-4-ylcarbonyl)-2-pyrrolidinyl)-1H-imidazol-5-yl)-4-biphenylyl)-1H-imidazol-2-yl)-1-pyrrolidinyl)carbonyl)-2-methylpropyl)carbamate]	1 to 99
CCN(CC)[C@@H](C(=O)N1CCC[C@H]1c1ncc(-c2ccc(-c3ccc(-c4cnc([C@@H]5CCCN5C(=O)CNC(=O)OC)[nH]4)cc3)cc2)[nH]1)c1ccccc1 [Example M50, methyl (2-((2S)-2-(5-(4′-(2-((2S)-1-((2R)-2-(diethylamino)-2-phenylacetyl)-2-pyrrolidinyl)-1H-imidazol-5-yl)-4-biphenylyl)-1H-imidazol-2-yl)-1-pyrrolidinyl)-2-oxoethyl)carbamate]	1 to 99
COC(=O)N[C@@H](C(=O)N1[C@H](c2ncc(-c3ccc(-c4ccc(-c5cnc([C@@H]6C[C@@H]7C[C@@H]7N6C(=O)[C@H](NC(=O)OC)C(C)C)[nH]5)cc4)cc3)[nH]2)C[C@@H]2C[C@@H]21)C(C)C [Example M123, methyl ((1R)-1-(((1S,3S,5S)-3-(5-(4′-(2-((1S,3S,5S)-2-((2R)-2-((methoxycarbonyl)amino)-3-methylbutanoyl)-2-azabicyclo[3.1.0]hex-3-yl)-1H-imidazol-5-yl)-4-biphenylyl)-1H-imidazol-2-yl)-2-azabicyclo[3.1.0]hex-2-yl)carbonyl)-2-methylpropyl)carbamate]	1000 to 10000
CCC(=O)N[C@H](C(=O)N1CCC[C@H]1c1nc(-c2ccc(-c3ccc(-c4c[nH]c([C@@H]5CCCN5C(=O)[C@@H](NC(=O)CC)C(C)C)n4)cc3)cc2)c[nH]1)C(C)C [Example F61, N-((1S)-2-methyl-1-(((2S)-2-(4-(4′-(2-((2S)-1-((2S)-3-methyl-2-(propionylamino)butanoyl)-2-pyrrolidinyl)-1H-imidazol-4-yl)-4-biphenylyl)-1H-imidazol-2-yl)-1-pyrrolidinyl)carbonyl)propyl)propanamide]	1 to 99
COC(=O)N[C@@H](C(=O)N1CCC[C@H]1c1ncc(-c2ccc(-c3ccc(-c4cnc([C@@H]5CCCN5C(=O)C(c5csc(C)n5)N(C)C)[nH]4)cc3)cc2)[nH]1)c1ccccc1 (stereo partly drawn) [Example 84-48, methyl ((1R)-2-((2S)-2-(5-(4′-(2-((2S)-1-((dimethylamino)(2-methyl-1,3-thiazol-4-yl)acetyl)-2-pyrrolidinyl)-1H-imidazol-5-yl)-4-biphenylyl)-1H-imidazol-2-yl)-1-pyrrolidinyl)-2-oxo-1-phenylethyl)carbamate]	0.001 to 0.999
COC(=O)N[C@@H](C)C(=O)N1CCC[C@H]1c1ncc(-c2ccc(-c3ccc(-c4cnc([C@@H]5CCCN5C(=O)[C@H](Cc5cscn5)NC(=O)OC)[nH]4)cc3)cc2)[nH]1 [cj-81, methyl ((1S)-2-((2S)-2-(5-(4′-(2-((2S)-1-(N-(methoxycarbonyl)-L-alanyl)-2-pyrrolidinyl)-1H-imidazol-5-yl)-4-biphenylyl)-1H-imidazol-2-yl)-1-pyrrolidinyl)-2-oxo-1-(1,3-thiazol-4-ylmethyl)ethyl)carbamate]	0.001 to 0.999
COC(=O)NCC(=O)N1CCC[C@H]1c1ncc(-c2ccc(-c3ccc(-c4cnc([C@@H]5CCCN5C(=O)[C@@H](NC(=O)OC)C(C)C)[nH]4)cc3)cc2)[nH]1 [Example M73, methyl (2-((2S)-2-(5-(4′-(2-((2S)-1-((2S)-2-((methoxycarbonyl)amino)-3-methylbutanoyl)-2-pyrrolidinyl)-1H-imidazol-5-yl)-4-biphenylyl)-1H-imidazol-2-yl)-1-pyrrolidinyl)-2-oxoethyl)carbamate]	100 to 999
COC(=O)N[C@@H](C(=O)N1CCC[C@H]1c1ncc(-c2ccc(-c3ccc(-c4cnc([C@@H]5CCCN5C(=O)c5ncc[nH]5)[nH]4)cc3)cc2)[nH]1)c1ccccc1 [Example 63, methyl ((1R)-2-((2S)-2-(5-(4′-(2-((2S)-1-(1H-imidazol-2-ylcarbonyl)-2-pyrrolidinyl)-1H-imidazol-5-yl)-4-biphenylyl)-1H-imidazol-2-yl)-1-pyrrolidinyl)-2-oxo-1-phenylethyl)carbamate]	0.001 to 0.999
COC(=O)N[C@H]1CCC[C@@H]1C(=O)N1CCC[C@H]1c1ncc(-c2ccc(-c3ccc(-c4cnc([C@@H]5CCCN5C(=O)[C@H](NC(=O)OC)c5ccccc5)[nH]4)cc3)cc2)[nH]1 [cj-117, methyl ((1R)-2-((2S)-2-(5-(4′-(2-((2S)-1-(((1S,2S)-2-((methoxycarbonyl)amino)cyclopentyl)carbonyl)-2-pyrrolidinyl)-1H-imidazol-5-yl)-4-biphenylyl)-1H-imidazol-2-yl)-1-pyrrolidinyl)-2-oxo-1-phenylethyl)carbamate]	0.001 to 0.999
COC(=O)N[C@@H](C(=O)N1CCC[C@H]1c1ncc(-c2ccc(-c3ccc(-c4cnc([C@@H]5CCCN5C(=O)[C@H]5CCCC[C@H]5NC(=O)OC)[nH]4)cc3)cc2)[nH]1)c1ccccc1 [cj-95, methyl ((1R)-2-((2S)-2-(5-(4′-(2-((2S)-1-(((1S,2R)-2-((methoxycarbonyl)amino)cyclohexyl)carbonyl)-2-pyrrolidinyl)-1H-imidazol-5-yl)-4-biphenylyl)-1H-imidazol-2-yl)-1-pyrrolidinyl)-2-oxo-1-phenylethyl)carbamate]	0.001 to 0.999
COC(=O)N[C@@H](C(=O)N[C@@H](C)c1ncc(-c2ccc(-c3ccc(-c4cnc([C@@H]5CCCN5C(=O)[C@H](NC(=O)OC)c5ccccc5)[nH]4)nn3)cc2)[nH]1)c1ccccc1 [Example 152j-14, methyl ((1R)-2-((2S)-2-(5-(6-(4-(2-((1S)-1-(((2R)-2-((methoxycarbonyl)amino)-2-phenylacetyl)amino)ethyl)-1H-imidazol-5-yl)phenyl)-3-pyridazinyl)-1H-imidazol-2-yl)-1-pyrrolidinyl)-2-oxo-1-phenylethyl)carbamate]	1 to 99
COC(=O)N[C@@H](CCN(C)C)C(=O)N1CCC[C@H]1c1ncc(-c2ccc(-c3ccc(-c4cnc([C@@H]5CCCN5C(=O)[C@H](CCN(C)C)NC(=O)OC)[nH]4)cc3)cc2)[nH]1 [cj-146, dimethyl (4,4′-biphenyldiylbis(1H-imidazole-5,2-diyl(2S)-2,1-pyrrolidinediyl((2S)-4-(dimethylamino)-1-oxo-1,2-butanediyl)))biscarbamate]	100 to 999
CCN(CC)[C@@H](C(=O)N1CCC[C@H]1c1ncc(-c2ccc(-c3ccc(-c4cnc([C@@H]5CCCN5C(=O)[C@H](NC(=O)OC)c5ccccc5)[nH]4)cc3)cc2)[nH]1)c1ccccc1 [Example M47, methyl ((1R)-2-((2S)-2-(5-(4′-(2-((2S)-1-((2R)-2-(diethylamino)-2-phenylacetyl)-2-pyrrolidinyl)-1H-imidazol-5-yl)-4-biphenylyl)-1H-imidazol-2-yl)-1-pyrrolidinyl)-2-oxo-1-phenylethyl)carbamate]	1 to 99
CN(C)[C@@H](C(=O)N1CCC[C@H]1c1ncc(-c2ccc(-c3ccc(-c4cnc([C@@H]5CCCN5C(=O)[C@H]5CCC(=O)N5)[nH]4)cc3)cc2)[nH]1)c1ccccc1 [Example 94-2, (5R)-5-(((2S)-2-(5-(4′-(2-((2S)-1-((2R)-2-(dimethylamino)-2-phenylacetyl)-2-pyrrolidinyl)-1H-imidazol-5-yl)-4-biphenylyl)-1H-imidazol-2-yl)-1-pyrrolidinyl)carbonyl)-2-pyrrolidinone]	1 to 99
CCN(CC)[C@@H](C(=O)N1CCC[C@H]1c1ncc(-c2ccc(-c3ccc(-c4cnc([C@@H]5CCCN5C(=O)C[C@H](Cc5ccccc5)NC(=O)OC)[nH]4)cc3)cc2)[nH]1)c1ccccc1 [cj-53, methyl ((1S)-1-benzyl-3-((2S)-2-(5-(4′-(2-((2S)-1-((2R)-2-(diethylamino)-2-phenylacetyl)-2-pyrrolidinyl)-1H-imidazol-5-yl)-4-biphenylyl)-1H-imidazol-2-yl)-1-pyrrolidinyl)-3-oxopropyl)carbamate]	0.001 to 0.999
